# Laboratory results as given in patent publication US20120142646A1, “Novel Compounds 621” (priority 2006, published 2012).
# Target: T1, Adrenergic β2 (Homo sapiens, UniProt P07550)
# T1 construct: Adherent H292 cells were removed from tissue culture flasks; endogenous in cells; host or cells: H292 cells
# Assay: Adrenergic β2 mediated cAMP production in H292 cells (AlphaScreen cAMP detection)
# Format: cell-based
# Design: key to β2 Int Act: fraction of formoterol maximum activity (formoterol = 1)
# Details: Intrinsic Activity as a fraction relative to the maximum activity determined for formoterol
# Method: Adrenergic β2 Mediated cAMP Production
# H292 cells were grown in 225 cm2 flasks incubator at 37° C., 5% CO2 in RPMI medium containing, 10% (v/v) FBS (foetal bovine serum) and 2 mM L-glutamine.
# Adherent H292 cells were removed from tissue culture flasks by treatment with Accutase™ cell detachment solution for 15 minutes. Flasks were incubated for 15 minutes in a humidified incubator at 37° C., 5% CO2. Detached cells were re-suspended in RPMI media (containing 10% (v/v) FBS and 2 mM L-glutamine) at 1×10^6 cells per mL. 10000 cells in 100 μL were added to each well of a tissue-culture-treated 96-well plate and the cells incubated overnight in a humidified incubator at 37° C., 5% CO2. The culture media was removed and cells were washed twice with 100 μL assay buffer and replaced with 50 μL assay buffer (HBSS solution containing 10 mM HEPES pH7.4 and 5 mM glucose). Cells were rested at room temperature for 20 minutes after which time 25 μL of rolipram (1.2 mM made up in assay buffer containing 2.4% (v/v) dimethylsulphoxide) was added. Cells were incubated with rolipram for 10 minutes after which time test compounds were added and the cells were incubated for 60 minutes at room temperature. The final rolipram concentration in the assay was 300 μM and final vehicle concentration was 1.6% (v/v) dimethylsulphoxide. The reaction was stopped by removing supernatants, washing once with 100 μL assay buffer and replacing with 50 μL lysis buffer. The cell monolayer was frozen at −80° C. for 30 minutes (or overnight).
# AlphaScreen™ cAMP Detection
# The concentration of cAMP (cyclic adenosine monophosphate) in the cell lysate was determined using AlphaScreen™ methodology. The frozen cell plate was thawed for 20 minutes on a plate shaker then 10 μL of the cell lysate was transferred to a 96-well white plate. 40 μL of mixed AlphaScreen™ detection beads pre-incubated with biotinylated cAMP, was added to each well and the plate incubated at room temperature for 10 hours in the dark. The AlphaScreen™ signal was measured using an EnVision spectrophotometer (Perkin-Elmer Inc.) with the recommended manufacturer's settings. cAMP concentrations were determined by reference to a calibration curve determined in the same experiment using standard cAMP concentrations. Concentration response curves for agonists were constructed and data was fitted to a four parameter logistic equation to determine both the pEC50 and Intrinsic Activity. Intrinsic Activity was expressed as a fraction relative to the maximum activity determined for formoterol in each experiment.
# T1 sequence (P07550 whole entry): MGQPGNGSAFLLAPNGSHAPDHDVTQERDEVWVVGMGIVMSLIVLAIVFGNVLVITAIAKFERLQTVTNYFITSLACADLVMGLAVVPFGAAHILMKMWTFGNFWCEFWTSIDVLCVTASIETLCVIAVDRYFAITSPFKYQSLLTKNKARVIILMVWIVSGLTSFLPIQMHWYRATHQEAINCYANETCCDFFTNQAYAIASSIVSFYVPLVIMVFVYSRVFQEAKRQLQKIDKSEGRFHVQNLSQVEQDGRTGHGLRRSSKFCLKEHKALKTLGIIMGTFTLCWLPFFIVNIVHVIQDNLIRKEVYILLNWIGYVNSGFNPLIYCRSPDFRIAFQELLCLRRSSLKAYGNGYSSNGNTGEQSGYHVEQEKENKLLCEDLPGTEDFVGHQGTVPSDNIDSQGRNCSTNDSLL
row,SMILES,β2 Int Act
1,"CCCC[C@@H](C)N(CCNCCc1ccc(O)c2c1OCC(=O)N2)C(=O)CCNCCc1ccccc1 [Example 25, (R)—N-(Hexan-2-yl)-N-(2-(2-(5-hydroxy-3-oxo-3,4-dihydro-2H-benzo[b][1,4]oxazin-8-yl)ethylamino)ethyl)-3-(phenethylamino)propanamide bis(trifluoroacetate)]",0.9
2,"O=C1COc2c(CCNCCN(C(=O)CCNCCc3ccc(Cl)c(Cl)c3)C3CCCCCC3)ccc(O)c2N1 [Example 26, N-Cycloheptyl-3-(3,4-dichlorophenethylamino)-N-(2-(2-(5-hydroxy-3-oxo-3,4-dihydro-2H-benzo[b][1,4]oxazin-8-yl)ethylamino)ethyl)propanamide bis(trifluoroacetate)]",0.74
3,"O=C1COc2c(CCNCCN(C(=O)CCNCCc3cccc(Cl)c3)C3CCCCC3)ccc(O)c2N1 [Example 27, 3-(3-Chlorophenethylamino)-N-cyclohexyl-N-(2-(2-(5-hydroxy-3-oxo-3,4-dihydro-2H-benzo[b][1,4]oxazin-8-yl)ethylamino)ethyl)propanamide bis(trifluoroacetate)]",0.89
4,"O=C1COc2c(CCNCCN(C(=O)CCNCCc3ccccc3Cl)C3CCCCC3)ccc(O)c2N1 [Example 28, 3-(2-Chlorophenethylamino)-N-cyclohexyl-N-(2-(2-(5-hydroxy-3-oxo-3,4-dihydro-2H-benzo[b][1,4]oxazin-8-yl)ethylamino)ethyl)propanamide bis(trifluoroacetate)]",0.86
5,"O=C1COc2c(CCNCCN(C(=O)CCNCCc3cccc(Cl)c3Cl)C3CCCCC3)ccc(O)c2N1 [Example 29, N-Cyclohexyl-3-(2,3-dichlorophenethylamino)-N-(2-(2-(5-hydroxy-3-oxo-3,4-dihydro-2H-benzo[b][1,4]oxazin-8-yl)ethylamino)ethyl)propanamide bis(trifluoroacetate)]",0.91
6,"O=C1COc2c(CCNCCN(C(=O)CCNCCc3ccc(Cl)c(Cl)c3)C3CCCCC3)ccc(O)c2N1 [Example 30, N-Cyclohexyl-3-(3,4-dichlorophenethylamino)-N-(2-(2-(5-hydroxy-3-oxo-3,4-dihydro-2H-benzo[b][1,4]oxazin-8-yl)ethylamino)ethyl)propanamide bis(trifluoroacetate)]",0.92
7,"O=C1COc2c(CCNCCN(C(=O)CCNCCc3ccc(Cl)cc3Cl)C3CCCCC3)ccc(O)c2N1 [Example 31, N-Cyclohexyl-3-(2,4-dichlorophenethylamino)-N-(2-(2-(5-hydroxy-3-oxo-3,4-dihydro-2H-benzo[b][1,4]oxazin-8-yl)ethylamino)ethyl)propanamide bis(trifluoroacetate)]",0.94
8,"Cc1ccc(F)c(CCNCCC(=O)N(CCNCCc2ccc(O)c3c2OCC(=O)N3)C2CCCCC2)c1 [Example 33, N-Cyclohexyl-3-(2-fluoro-5-methylphenethylamino)-N-(2-(2-(5-hydroxy-3-oxo-3,4-dihydro-2H-benzo[b][1,4]oxazin-8-yl)ethylamino)ethyl)propanamide bis(trifluoroacetate)]",0.9
9,"O=C1COc2c(CCNCCN(C(=O)CCNCCc3cc(Cl)ccc3F)C3CCCCC3)ccc(O)c2N1 [Example 34, 3-(5-Chloro-2-fluorophenethylamino)-N-cyclohexyl-N-(2-(2-(5-hydroxy-3-oxo-3,4-dihydro-2H-benzo[b][1,4]oxazin-8-yl)ethylamino)ethyl)propanamide bis(trifluoroacetate)]",0.9
10,"O=C1COc2c(CCNCCN(C(=O)CCNCCc3cc(F)cc(F)c3)C3CCCCC3)ccc(O)c2N1 [Example 35, N-Cyclohexyl-3-(3,5-difluorophenethylamino)-N-(2-(2-(5-hydroxy-3-oxo-3,4-dihydro-2H-benzo[b][1,4]oxazin-8-yl)ethylamino)ethyl)propanamide bis(trifluoroacetate)]",0.87
11,"O=C1COc2c(CCNCCN(C(=O)CCNCCc3cccc(F)c3F)C3CCCCC3)ccc(O)c2N1 [Example 36, N-Cyclohexyl-3-(2,3-difluorophenethylamino)-N-(2-(2-(5-hydroxy-3-oxo-3,4-dihydro-2H-benzo[b][1,4]oxazin-8-yl)ethylamino)ethyl)propanamide bis(trifluoroacetate)]",0.91
12,"O=C1COc2c(CCNCCN(C(=O)CCNCCc3ccc(F)c(Cl)c3)C3CCCCC3)ccc(O)c2N1 [Example 37, 3-(3-Chloro-4-fluorophenethylamino)-N-cyclohexyl-N-(2-(2-(5-hydroxy-3-oxo-3,4-dihydro-2H-benzo[b][1,4]oxazin-8-yl)ethylamino)ethyl)propanamide bis(trifluoroacetate)]",0.89
13,"O=C1COc2c(CCNCCN(C(=O)CCNCCc3cc(F)ccc3F)C3CCCCC3)ccc(O)c2N1 [Example 38, N-Cyclohexyl-3-(2,5-difluorophenethylamino)-N-(2-(2-(5-hydroxy-3-oxo-3,4-dihydro-2H-benzo[b][1,4]oxazin-8-yl)ethylamino)ethyl)propanamide bis(trifluoroacetate)]",0.98
14,"O=C1COc2c(CCNCCN(C(=O)CCNCCc3cccc(Cl)c3F)C3CCCCC3)ccc(O)c2N1 [Example 39, 3-(3-Chloro-2-fluorophenethylamino)-N-cyclohexyl-N-(2-(2-(5-hydroxy-3-oxo-3,4-dihydro-2H-benzo[b][1,4]oxazin-8-yl)ethylamino)ethyl)propanamide bis(trifluoroacetate)]",0.98
15,"Cc1cc(CCNCCC(=O)N(CCNCCc2ccc(O)c3c2OCC(=O)N3)C2CCCCC2)ccc1F [Example 40, N-Cyclohexyl-3-(4-fluoro-3-methylphenethylamino)-N-(2-(2-(5-hydroxy-3-oxo-3,4-dihydro-2H-benzo[b][1,4]oxazin-8-yl)ethylamino)ethyl)propanamide bis(trifluoroacetate)]",0.96
16,"O=C1COc2c(CCNCCN(C(=O)CCNCCc3cc(F)cc(Cl)c3)C3CCCCC3)ccc(O)c2N1 [Example 41, 3-(3-Chloro-5-fluorophenethylamino)-N-cyclohexyl-N-(2-(2-(5-hydroxy-3-oxo-3,4-dihydro-2H-benzo[b][1,4]oxazin-8-yl)ethylamino)ethyl)propanamide bis(trifluoroacetate)]",0.95
17,"O=C1COc2c(CCNCCN(C(=O)CCNCCc3ccc(F)c(F)c3)C3CCCCC3)ccc(O)c2N1 [Example 42, N-Cyclohexyl-3-(3,4-difluorophenethylamino)-N-(2-(2-(5-hydroxy-3-oxo-3,4-dihydro-2H-benzo[b][1,4]oxazin-8-yl)ethylamino)ethyl)propanamide bis(trifluoroacetate)]",0.9
18,"O=C1COc2c(CCNCCN(C(=O)CCNCCc3ccc(C(=O)O)cc3)C3CCCCC3)ccc(O)c2N1 [Example 43, 4-(2-(3-(Cyclohexyl(2-(2-(5-hydroxy-3-oxo-3,4-dihydro-2H-benzo[b][1,4]oxazin-8-yl)ethylamino)ethyl)amino)-3-oxopropylamino)ethyl)benzoic acid bis(trifluoroacetate)]",0.97
